Test results reported in PubChem BioAssay (NCI).
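A five-concentration, 48-hour dose response in 96-well plates underlies each endpoint, interpolated linearly between surrounding concentrations. GI50 marks 50% less growth. TGI: total growth inhibition.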

How the values were obtained:
Experiment in all cases: NCI anticancer screen, dose series, 48 h
OVCAR-5 ovarian = tested on: OVCAR-5 ovarian
EKVX NSCLC = tested on: EKVX NSCLC
CCRF-CEM leukemia = tested on: CCRF-CEM leukemia
HOP-62 NSCLC = tested on: HOP-62 NSCLC
NCI/ADR-RES ovarian = tested on: NCI/ADR-RES ovarian
MOLT-4 leukemia = tested on: MOLT-4 leukemia
CAKI-1 renal = tested on: CAKI-1 renal
BT-549 breast = tested on: BT-549 breast
786-0 renal = tested on: 786-0 renal
SNB-19 CNS = tested on: SNB-19 CNS
K-562 leukemia = tested on: K-562 leukemia
SW-620 colon = tested on: SW-620 colon
OVCAR-3 ovarian = tested on: OVCAR-3 ovarian
COLO 205 colon = tested on: COLO 205 colon
UACC-62 melanoma = tested on: UACC-62 melanoma
M14 melanoma = tested on: M14 melanoma
UACC-257 melanoma = tested on: UACC-257 melanoma
MDA-MB-468 breast = tested on: MDA-MB-468 breast
U251 CNS = tested on: U251 CNS
HOP-92 NSCLC = tested on: HOP-92 NSCLC
HCT-116 colon = tested on: HCT-116 colon
HCC-2998 colon = tested on: HCC-2998 colon
SK-MEL-5 melanoma = tested on: SK-MEL-5 melanoma
ACHN renal = tested on: ACHN renal
HCT-15 colon = tested on: HCT-15 colon
SK-OV-3 ovarian = tested on: SK-OV-3 ovarian
NCI-H23 lung = tested on: NCI-H23 lung
DU-145 prostate = tested on: DU-145 prostate
LOX IMVI melanoma = tested on: LOX IMVI melanoma
SK-MEL-28 melanoma = tested on: SK-MEL-28 melanoma
SNB-75 CNS = tested on: SNB-75 CNS
MALME-3M melanoma = tested on: MALME-3M melanoma
SF-268 CNS = tested on: SF-268 CNS
RPMI-8226 leukemia = tested on: RPMI-8226 leukemia
SF-295 CNS = tested on: SF-295 CNS
SF-539 CNS = tested on: SF-539 CNS
KM12 colon = tested on: KM12 colon
IGROV1 ovarian = tested on: IGROV1 ovarian
RXF 393 renal = tested on: RXF 393 renal
OVCAR-8 ovarian = tested on: OVCAR-8 ovarian
A549 NSCLC = tested on: A549 NSCLC
OVCAR-4 ovarian = tested on: OVCAR-4 ovarian
SK-MEL-2 melanoma = tested on: SK-MEL-2 melanoma
SN12C renal = tested on: SN12C renal
MDA-MB-231 breast = tested on: MDA-MB-231 breast
NCI-H460 lung = tested on: NCI-H460 lung
MDA-MB-435 = tested on: MDA-MB-435
NCI-H522 lung = tested on: NCI-H522 lung
HS 578T breast = tested on: HS 578T breast
A498 renal = tested on: A498 renal
NCI-H226 lung = tested on: NCI-H226 lung
TK-10 renal = tested on: TK-10 renal

Cc1cccc(-c2nc(Nc3cccc(S(N)(=O)=O)c3)c3ccccc3n2)c1
GI50 (OVCAR-5 ovarian): > 100 µM | TGI (OVCAR-5 ovarian): > 100 µM | GI50 (EKVX NSCLC): > 100 µM | TGI (EKVX NSCLC): > 100 µM | GI50 (CCRF-CEM leukemia): 4.77 µM | TGI (CCRF-CEM leukemia): > 100 µM | GI50 (HOP-62 NSCLC): > 100 µM | TGI (HOP-62 NSCLC): > 100 µM | GI50 (NCI/ADR-RES ovarian): 7.08 µM | TGI (NCI/ADR-RES ovarian): > 100 µM | GI50 (MOLT-4 leukemia): 4.1 µM | TGI (MOLT-4 leukemia): > 100 µM | GI50 (CAKI-1 renal): 13.8 µM | TGI (CAKI-1 renal): > 100 µM | GI50 (BT-549 breast): > 100 µM | TGI (BT-549 breast): > 100 µM | GI50 (786-0 renal): 8.53 µM | TGI (786-0 renal): > 100 µM | GI50 (SNB-19 CNS): > 100 µM | TGI (SNB-19 CNS): > 100 µM | GI50 (K-562 leukemia): 3.23 µM | TGI (K-562 leukemia): > 100 µM | GI50 (SW-620 colon): 17.4 µM | TGI (SW-620 colon): > 100 µM | GI50 (OVCAR-3 ovarian): 9.42 µM | TGI (OVCAR-3 ovarian): > 100 µM | GI50 (COLO 205 colon): > 100 µM | TGI (COLO 205 colon): > 100 µM | GI50 (UACC-62 melanoma): > 100 µM | TGI (UACC-62 melanoma): > 100 µM | GI50 (M14 melanoma): > 100 µM | TGI (M14 melanoma): > 100 µM | GI50 (UACC-257 melanoma): > 100 µM | TGI (UACC-257 melanoma): > 100 µM | GI50 (MDA-MB-468 breast): 5.57 µM | TGI (MDA-MB-468 breast): > 100 µM | GI50 (U251 CNS): 11.6 µM | TGI (U251 CNS): > 100 µM | GI50 (HOP-92 NSCLC): 34.9 µM | TGI (HOP-92 NSCLC): > 100 µM | GI50 (HCT-116 colon): 8.09 µM | TGI (HCT-116 colon): > 100 µM | GI50 (HCC-2998 colon): 4.98 µM | TGI (HCC-2998 colon): > 100 µM | GI50 (SK-MEL-5 melanoma): > 100 µM | TGI (SK-MEL-5 melanoma): > 100 µM | GI50 (ACHN renal): 7.93 µM | TGI (ACHN renal): > 100 µM | GI50 (HCT-15 colon): 3.53 µM | TGI (HCT-15 colon): > 100 µM | GI50 (SK-OV-3 ovarian): > 100 µM | TGI (SK-OV-3 ovarian): > 100 µM | GI50 (NCI-H23 lung): 30.6 µM | TGI (NCI-H23 lung): > 100 µM | GI50 (DU-145 prostate): > 100 µM | TGI (DU-145 prostate): > 100 µM | GI50 (LOX IMVI melanoma): 4.76 µM | TGI (LOX IMVI melanoma): > 100 µM | GI50 (SK-MEL-28 melanoma): > 100 µM | TGI (SK-MEL-28 melanoma): > 100 µM | GI50 (SNB-75 CNS): > 100 µM | TGI (SNB-75 CNS): > 100 µM | GI50 (MALME-3M melanoma): > 100 µM | TGI (MALME-3M melanoma): > 100 µM | GI50 (SF-268 CNS): > 100 µM | TGI (SF-268 CNS): > 100 µM | GI50 (RPMI-8226 leukemia): 7.66 µM | TGI (RPMI-8226 leukemia): > 100 µM | GI50 (SF-295 CNS): 4.43 µM | TGI (SF-295 CNS): > 100 µM | GI50 (SF-539 CNS): 6.2 µM | TGI (SF-539 CNS): 25.1 µM | GI50 (KM12 colon): 3.62 µM | TGI (KM12 colon): > 100 µM | GI50 (IGROV1 ovarian): > 100 µM | TGI (IGROV1 ovarian): > 100 µM | GI50 (RXF 393 renal): 6.23 µM | TGI (RXF 393 renal): > 100 µM | GI50 (OVCAR-8 ovarian): 9.82 µM | TGI (OVCAR-8 ovarian): > 100 µM | GI50 (A549 NSCLC): 10.9 µM | TGI (A549 NSCLC): > 100 µM | GI50 (OVCAR-4 ovarian): > 100 µM | TGI (OVCAR-4 ovarian): > 100 µM | GI50 (SK-MEL-2 melanoma): > 100 µM | TGI (SK-MEL-2 melanoma): > 100 µM | GI50 (SN12C renal): > 100 µM | TGI (SN12C renal): > 100 µM | GI50 (MDA-MB-231 breast): 6.52 µM | TGI (MDA-MB-231 breast): > 100 µM | GI50 (NCI-H460 lung): 7.2 µM | TGI (NCI-H460 lung): 43 µM | GI50 (MDA-MB-435): > 100 µM | TGI (MDA-MB-435): > 100 µM | GI50 (NCI-H522 lung): 5.69 µM | TGI (NCI-H522 lung): > 100 µM | GI50 (HS 578T breast): > 100 µM | TGI (HS 578T breast): > 100 µM | GI50 (A498 renal): > 100 µM | TGI (A498 renal): > 100 µM | GI50 (NCI-H226 lung): > 100 µM | TGI (NCI-H226 lung): > 100 µM | GI50 (TK-10 renal): > 100 µM | TGI (TK-10 renal): > 100 µM
